As a reminder, the pIC50 is the IC50 on a negative log10 scale, so that one unit is a factor of ten.

pIC50: −log10 of the molar value.

The target of the first experiment is T1, PD-1/PD-L1 (Homo sapiens, UniProt Q9NZQ7).
T1 construct: made in house; host or cells: HEK293T
T1 sequence (Q9NZQ7 with tags, fused parts or gaps): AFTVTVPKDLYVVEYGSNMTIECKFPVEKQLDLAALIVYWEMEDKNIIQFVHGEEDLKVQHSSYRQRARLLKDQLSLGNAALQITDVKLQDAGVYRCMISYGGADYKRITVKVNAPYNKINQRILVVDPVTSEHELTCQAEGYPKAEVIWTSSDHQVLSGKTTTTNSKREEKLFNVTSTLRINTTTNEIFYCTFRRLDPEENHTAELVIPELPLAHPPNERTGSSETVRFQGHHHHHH
Kind of experiment: PD-1/PD-L1 Homogenous Time-Resolved Fluorescence (HTRF) binding assay. Conditions: PD-L1-His 10 nM, PD-1-Ig 20 nM; numeric IC50; read-out: Range or IC50. In outline: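 dPBS + 0.1% BSA + 0.05% Tween-20 buffer; Eu-cryptate anti-Ig 1 nM final, APC anti-His 20 nM final; HTRF read. Counter-assays: PD-1-Ig/PD-L2-His 20 & 5 nM, CD80-His/PD-L1-Ig 100 & 10 nM.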
(In general: In TR-FRET formats the signal depends on donor and acceptor labels being close together.)
On to `CCNC(=O)c1cccc(-c2cccc(COc3cc(OCc4cncc(C#N)c4)c(CNC(C)(CO)CO)cc3Cl)c2C)c1C` [Example 4010, 3′-((2-chloro-5-((5-cyanopyridin-3-yl)methoxy)-4-(((1,3-dihydroxy-2-methylpropan-2-yl)amino)methyl)phenoxy)methyl)-N-ethyl-2,2′-dimethyl-[1,1′-biphenyl]-3-carboxamide], for which the pIC50 was 7.96.

The experiment is the same for the next values; noted with them: PD-L1-His 10 nM, PD-1-Ig 20 nM; value given as range class; read-out: Range or IC50.
As to `Cc1c(COc2cc(OCc3cncc(C#N)c3)c(CO)cc2Cl)cccc1-c1cc(OCCCN2CC[C@@H](O)C2)cc(OCCCN2CC[C@@H](O)C2)c1` [Example 3063, 5-((5-((3′,5′-bis(3-((R)-3-hydroxypyrrolidin-1-yl)propoxy)-2-methyl-[1,1′-biphenyl]-3-yl)methoxy)-4-chloro-2-(hydroxymethyl)phenoxy)methyl)nicotinonitrile], the pIC50 was 5.00 to 5.70.

Consider `Cc1c(COc2cc(OCc3cncc(C#N)c3)c(CN[C@@](C)(CO)C(=O)O)cc2Cl)cccc1-c1cc(OCCCN2CC[C@@H](O)C2)cc(OCCCN2CC[C@@H](O)C2)c1` [Example 3064, (S)-2-((4-((3′,5′-bis(3-((R)-3-hydroxypyrrolidin-1-yl)propoxy)-2-methyl-[1,1′-biphenyl]-3-yl)methoxy)-5-chloro-2-((5-cyanopyridin-3-yl)methoxy)benzyl)amino)-3-hydroxy-2-methylpropanoic Acid], for which the pIC50 is 5.00 to 5.70.

In the case of `Cc1c(COc2cc(OCc3cncc(C#N)c3)c(CN[C@@H](CO)C(=O)O)cc2Cl)cccc1-c1cc(OCCCN2CC[C@@H](O)C2)cc(OCCCN2CC[C@@H](O)C2)c1` [Example 3065, (S)-2-((4-((3′,5′-bis(3-((R)-3-hydroxypyrrolidin-1-yl)propoxy)-2-methyl-[1,1′-biphenyl]-3-yl)methoxy)-5-chloro-2-((5-cyanopyridin-3-yl)methoxy)benzyl)amino)-3-hydroxypropanoic Acid], the pIC50 is 7.00 to 8.00.

On to `CCOC(=O)[C@H](CO)NCc1cc(Cl)c(OCc2cccc(-c3cccc(OCCCN4CC[C@@H](O)C4)c3C)c2C)cc1OCc1cncc(C#N)c1` [Example 3066, (S)-ethyl 2-((5-chloro-2-((5-cyanopyridin-3-yl)methoxy)-4-((3′-(3-((R)-3-hydroxypyrrolidin-1-yl)propoxy)-2,2′-dimethyl-[1,1′-biphenyl]-3-yl)methoxy)benzyl)amino)-3-hydroxypropanoate], for which the pIC50 is 8.00 to 9.68.

For the molecule `COC(=O)[C@@H]1CCCCN1Cc1cc(Cl)c(OCc2cccc(-c3cccc(OCCCN4CC[C@@H](O)C4)c3C)c2C)cc1OCc1cncc(C#N)c1` [Example 3067, methyl (S)-1-(5-chloro-2-((5-cyanopyridin-3-yl)methoxy)-4-((3′-(3-((R)-3-hydroxypyrrolidin-1-yl)propoxy)-2,2′-dimethyl-[1,1′-biphenyl]-3-yl)methoxy)benzyl)piperidine-2-carboxylate], the pIC50 is 8.00 to 9.68.

`Cc1c(COc2cc(OCc3cncc(C#N)c3)c(CN3CCCCC3(C)C(=O)O)cc2Cl)cccc1-c1cccc(OCCCN2CC[C@@H](O)C2)c1C` (stereo partly drawn) [Example 3068, 1-(5-chloro-2-((5-cyanopyridin-3-yl)methoxy)-4-((3′-(3-((R)-3-hydroxypyrrolidin-1-yl)propoxy)-2,2′-dimethyl-[1,1′-biphenyl]-3-yl)methoxy)benzyl)-2-methylpiperidine-2-carboxylic Acid]: the pIC50 is 8.00 to 9.68.

For the molecule `COC(=O)C1(C)CCCCN1Cc1cc(Cl)c(OCc2cccc(-c3cccc(OCCCN4CC[C@@H](O)C4)c3C)c2C)cc1OCc1cncc(C#N)c1` (stereo partly drawn) [Example 3069, methyl 1-(5-chloro-2-((5-cyanopyridin-3-yl)methoxy)-4-((3′-(3-((R)-3-hydroxypyrrolidin-1-yl)propoxy)-2,2′-dimethyl-[1,1′-biphenyl]-3-yl)methoxy)benzyl)-2-methylpiperidine-2-carboxylate], the pIC50 was 8.00 to 9.68.

Take `COC(=O)C1(C)CCCCN1Cc1cc(Cl)c(OCc2cccc(-c3cccc(OCCCN4CC[C@@H](O)C4)c3Cl)c2C)cc1OCc1cncc(C#N)c1` (stereo partly drawn) [Example 3070, methyl 1-(5-chloro-4-((2′-chloro-3′-(3-((R)-3-hydroxypyrrolidin-1-yl)propoxy)-2-methyl-[1,1′-biphenyl]-3-yl)methoxy)-2-((5-cyanopyridin-3-yl)methoxy)benzyl)-2-methylpiperidine-2-carboxylate]: the pIC50 was 8.00 to 9.68.

As for `Cc1c(COc2ccc(CN3CCCC[C@H]3C(=O)O)cc2Cl)cccc1-c1cccc(OCCCN2CC[C@@H](O)C2)c1C` [Example 3072, (S)-1-(3-chloro-4-((3′-(3-((R)-3-hydroxypyrrolidin-1-yl)propoxy)-2,2′-dimethyl-[1,1′-biphenyl]-3-yl)methoxy)benzyl)piperidine-2-carboxylic Acid], the pIC50 was 8.00 to 9.68.

Consider `Cc1c(COc2cc(OCc3cncc(C#N)c3)c(CN3CCCC[C@H]3C(=O)O)cc2Cl)cccc1-c1cccc(C(=O)N2CC2)c1C` [Example 4001, (S)-1-(4-((3′-(aziridine-1-carbonyl)-2,2′-dimethyl-[1,1′-biphenyl]-3-yl)methoxy)-5-chloro-2-((5-cyanopyridin-3-yl)methoxy)benzyl)piperidine-2-carboxylic Acid], for which the pIC50 was 8.00 to 9.68.

As for `Cc1c(COc2cc(OCc3cncc(C#N)c3)c(CN3CCCC[C@H]3C(=O)O)cc2Cl)cccc1-c1cccc(C(=O)NCCN2CCCC2)c1C` [Example 4002, (S)-1-(5-chloro-2-((5-cyanopyridin-3-yl)methoxy)-4-((2,2′-dimethyl-3′-((2-(pyrrolidin-1-yl)ethyl)carbamoyl)-[1,1′-biphenyl]-3-yl)methoxy)benzyl)piperidine-2-carboxylic Acid], the pIC50 was 7.00 to 8.00.

In the case of `Cc1c(COc2cc(OCc3cncc(C#N)c3)c(CNC(CO)CO)cc2Cl)cccc1-c1cccc(C(=O)NCCN2CCCC2)c1C` [Example 4003, 3′-((2-chloro-5-((5-cyanopyridin-3-yl)methoxy)-4-(((1,3-dihydroxypropan-2-yl)amino)methyl)phenoxy)methyl)-2,2′-dimethyl-N-(2-(pyrrolidin-1-yl)ethyl)-[1,1′-biphenyl]-3-carboxamide], the pIC50 is 8.00 to 9.68.

On to `Cc1c(COc2cc(OCc3cncc(C#N)c3)c(CN3CCCC[C@H]3C(=O)O)cc2Cl)cccc1-c1cccc(C(=O)NCCN2CCS(=O)(=O)CC2)c1C` [Example 4004, (S)-1-(5-chloro-2-((5-cyanopyridin-3-yl)methoxy)-4-((3′-((2-(1,1-dioxidothiomorpholino)ethyl)carbamoyl)-2,2′-dimethyl-[1,1′-biphenyl]-3-yl)methoxy)benzyl)piperidine-2-carboxylic Acid], for which the pIC50 is 7.00 to 8.00.

`Cc1c(COc2cc(OCc3cncc(C#N)c3)c(CNC(CO)CO)cc2Cl)cccc1-c1cccc(C(=O)NCCN2CCS(=O)(=O)CC2)c1C` [Example 4005, 3′-((2-chloro-5-((5-cyanopyridin-3-yl)methoxy)-4-(((1,3-dihydroxypropan-2-yl)amino)methyl)phenoxy)methyl)-N-(2-(1,1-dioxidothiomorpholino)ethyl)-2,2′-dimethyl-[1,1′-biphenyl]-3-carboxamide]: the pIC50 was 8.00 to 9.68.

As for `CCNC(=O)c1cccc(-c2cccc(COc3cc(OCc4cncc(C#N)c4)c(CN4CCCC[C@H]4C(=O)O)cc3Cl)c2C)c1C` [Example 4006, (S)-1-(5-chloro-2-((5-cyanopyridin-3-yl)methoxy)-4-((3′-(ethylcarbamoyl)-2,2′-dimethyl-[1,1′-biphenyl]-3-yl)methoxy)benzyl)piperidine-2-carboxylic Acid], the pIC50 is 7.00 to 8.00.

Regarding `CCNC(=O)c1cccc(-c2cccc(COc3cc(OCc4cncc(C#N)c4)c(CN4CCC[C@H]4C(=O)O)cc3Cl)c2C)c1C` [Example 4007, (5-chloro-2-((5-cyanopyridin-3-yl)methoxy)-4-((3′-(ethylcarbamoyl)-2,2′-dimethyl-[1,1′-biphenyl]-3-yl)methoxy)benzyl)-L-proline], the pIC50 was 5.70 to 7.00.

On to `CCNC(=O)c1cccc(-c2cccc(COc3cc(OCc4cncc(C#N)c4)c(CN4C[C@H](O)C[C@H]4C(=O)O)cc3Cl)c2C)c1C` [Example 4008, (2S,4R)-1-(5-chloro-2-((5-cyanopyridin-3-yl)methoxy)-4-((3′-(ethylcarbamoyl)-2,2′-dimethyl-[1,1′-biphenyl]-3-yl)methoxy)benzyl)-4-hydroxypyrrolidine-2-carboxylic Acid], for which the pIC50 is 7.00 to 8.00.

Consider `CCNC(=O)c1cccc(-c2cccc(COc3cc(OCc4cncc(C#N)c4)c(CNC(CO)CO)cc3Cl)c2C)c1C` [Example 4009, 3′-((2-chloro-5-((5-cyanopyridin-3-yl)methoxy)-4-(((1,3-dihydroxypropan-2-yl)amino)methyl)phenoxy)methyl)-N-ethyl-2,2′-dimethyl-[1,1′-biphenyl]-3-carboxamide], for which the pIC50 was 7.00 to 8.00.

In the case of `CNC(=O)c1cccc(-c2cccc(COc3cc(OCc4cncc(C#N)c4)c(CN4CCCC[C@H]4C(=O)O)cc3Cl)c2C)c1C` [Example 4011, (S)-1-(5-chloro-2-((5-cyanopyridin-3-yl)methoxy)-4-((2,2′-dimethyl-3′-(methylcarbamoyl)-[1,1′-biphenyl]-3-yl)methoxy)benzyl)piperidine-2-carboxylic Acid], the pIC50 is 7.00 to 8.00.

For the molecule `CNC(=O)c1cccc(-c2cccc(COc3cc(OCc4cncc(C#N)c4)c(CN4CCC[C@H]4C(=O)O)cc3Cl)c2C)c1C` [Example 4012, (5-chloro-2-((5-cyanopyridin-3-yl)methoxy)-4-((2,2′-dimethyl-3′-(methylcarbamoyl)-[1,1′-biphenyl]-3-yl)methoxy)benzyl)-L-proline], the pIC50 is 7.00 to 8.00.

With `CNC(=O)c1cccc(-c2cccc(COc3cc(OCc4cncc(C#N)c4)c(CN4C[C@H](O)C[C@H]4C(=O)O)cc3Cl)c2C)c1C` [Example 4013, (2S,4R)-1-(5-chloro-2-((5-cyanopyridin-3-yl)methoxy)-4-((2,2′-dimethyl-3′-(methylcarbamoyl)-[1,1′-biphenyl]-3-yl)methoxy)benzyl)-4-hydroxypyrrolidine-2-carboxylic Acid], the pIC50 was 7.00 to 8.00.

These data come from US10745382B2 (BRISTOL-MYERS SQUIBB COMPANY, priority 2015, dated 2020).
